Consider 25 compounds from patent US11040970B2, “VMAT2 inhibitor compounds and compositions thereof” (Neurocrine Biosciences, Inc., priority 2017, dated 2021).

The subject of assay [1] is vesicular monoamine transporter-2 (VMAT2). The following applies: read-out: IC50 catecholamine uptake by VMAT2; cited from earlier work.
The target in assay [2] is VMAT2 (Homo sapiens (Human), UniProt Q05940). The assay is described as follows: VMAT2 radioligand binding assay: competition against 3H-dihydrotetrabenezine on human platelet homogenate (modified procedure). The following applies: 10 nM 3H-dihydrotetrabenezine, 25° C., 90 minutes. Here is the method:
Examples of techniques for determining the capability of a compound to inhibit VMAT2 are provided below. The procedure is adapted from that described previously (see, e.g., Near, (1986), Mol. Pharmacol. 30: 252-57; Teng, et al., J. Neurochem. 71, 258-65, 1998). Homogenates from human platelets or Sprague-Dawley rat forebrain were prepared by homogenization and then washed by centrifugation as described previously (see, e.g., Hoare et al., (2003) Peptides 24:1881-97). […] Following incubation at 25° C. for two hours, bound radioligand was collected by rapid filtration onto GF/B glass fiber filters using a Unifilter-96 Harvester (PerkinElmer). Filter plates were pre-treated for 10 minutes with 0.1% polyethylenimine, and following harvesting the filter plates were washed with 800 μl VMAT2 binding buffer. Bound radioligand was quantified by scintillation counting using a Topcount NXT (PerkinElmer).
Following incubation at 25° C. for 90 minutes, bound radioligand was collected by rapid filtration onto GF/B glass fiber filters using a Unifilter-96 Harvester (PerkinElmer). Filter plates were pre-treated with 0.1% polyethylenimine and allowed to dry overnight, and following harvesting the filter plates were washed with 800 μl VMAT2 binding buffer. Bound radioligand was quantified by scintillation counting using a Topcount NXT (PerkinElmer).

Chain of VMAT2 (Q05940 whole entry): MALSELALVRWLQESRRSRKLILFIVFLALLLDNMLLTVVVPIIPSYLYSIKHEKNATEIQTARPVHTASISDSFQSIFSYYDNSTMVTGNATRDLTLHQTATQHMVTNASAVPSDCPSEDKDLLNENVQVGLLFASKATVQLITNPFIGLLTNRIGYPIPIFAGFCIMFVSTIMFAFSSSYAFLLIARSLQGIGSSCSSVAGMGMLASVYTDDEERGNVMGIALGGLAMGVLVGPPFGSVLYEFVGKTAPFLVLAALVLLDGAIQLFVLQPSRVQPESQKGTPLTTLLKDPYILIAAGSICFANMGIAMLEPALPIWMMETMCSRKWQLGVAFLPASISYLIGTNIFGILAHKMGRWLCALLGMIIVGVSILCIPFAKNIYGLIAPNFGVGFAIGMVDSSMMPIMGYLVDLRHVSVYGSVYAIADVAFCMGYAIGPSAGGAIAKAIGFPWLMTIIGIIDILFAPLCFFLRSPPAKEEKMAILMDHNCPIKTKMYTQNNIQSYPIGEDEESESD

For the compound `COc1cc2c(cc1OC)C1CC(=O)C(CC(C)C)CN1CC2` (stereo not shown) [Tetrabenazine, 3-Isobutyl-9,10-dimethoxy-1,3,4,6,7,11b-hexahydro-2H-pyrido[2,1-a]-isoquinolin-2-one], in assay [1], the IC50 is […]. In assay [2], `COc1cc2c(cc1OCCCF)CCN1C[C@@H](CC3CCC3)N(C)C[C@@H]21` [Compound 9-1, (3R,11bR)-3-(cyclobutylmethyl)-9-(3-fluoropropoxy)-10-methoxy-2-methyl-1H,2H,3H,4H,6H,7H,11bH-piperazino[2,1-a]isoquinoline] returned an inhibition constant (Ki) of over 500 nM.

In the case of `COc1cc2c(cc1OCC(F)(F)F)CCN1C[C@@H](CC(C)(C)C)N(C)C[C@H]21` [Compound 11-3, (3R,11bS)-3-(2,2-dimethylpropyl)-10-methoxy-2-methyl-9-(2,2,2-trifluoroethoxy)-1H,2H,3H,4H,6H,7H,11bH-piperazino[2,1-a]isoquinoline], in assay [2], the inhibition constant (Ki) is under 10 nM. The same measure, in the same setting: as for `CCOc1cc2c(cc1OC)[C@H]1CN(C)[C@H](CC(C)C)CN1CC2` [Compound 5-1, (3R,11bS)-9-ethoxy-10-methoxy-2-methyl-3-(2-methylpropyl)-1H,2H,3H,4H,6H,7H,11bH-piperazino[2,1-a]isoquinoline], the figure is under 10 nM; as for `COc1cc2c(cc1OCCCF)CCN1C[C@@H](CC3CCC3)N(C)C[C@H]21` [Compound 8-1, (3R,11bS)-3-(cyclobutylmethyl)-9-(3-fluoropropoxy)-10-methoxy-2-methyl-1H,2H,3H,4H,6H,7H,11bH-piperazino[2,1-a]isoquinoline], 10 to 500 nM. Same read-out and setting: as for `COc1cc2c(cc1OC)[C@@H]1CN(CC(C)C)[C@H](CC(C)C)CN1CC2` [Compound 3-3, (3R,11bR)-9,10-dimethoxy-2,3-bis(2-methylpropyl)-1H,2H,3H,4H,6H,7H,11bH-piperazino[2,1-a]isoquinoline], the figure is over 500 nM; as for `COc1cc2c(cc1OCC(F)(F)F)CCN1C[C@@H](CC3CCC3)N(C)C[C@H]21` [Compound 8-2, (3R,11bS)-3-(cyclobutylmethyl)-10-methoxy-2-methyl-9-(2,2,2-trifluoroethoxy)-1H,2H,3H,4H,6H,7H,11bH-piperazino[2,1-a]isoquinoline], under 10 nM; as for `COc1cc2c(cc1OC(C)C)CCN1C[C@@H](CC(C)C)N(C)C[C@H]21` [Compound 5-2, (3R,11bS)-10-methoxy-2-methyl-3-(2-methylpropyl)-9-(propan-2-yloxy)-1H,2H,3H,4H,6H,7H,11bH-piperazino[2,1-a]isoquinoline], 10 to 500 nM.

The compound `COc1cc2c(cc1OCC(C)C)CCN1C[C@@H](CC(C)C)N(C)C[C@H]21` [Compound 5-9, (3R,11bS)-10-methoxy-2-methyl-9-(2-methylpropoxy)-3-(2-methylpropyl)-1H,2H,3H,4H,6H,7H,11bH-piperazino[2,1-a]isoquinoline] returned an inhibitory constant (Ki) in assay [2] of under 10 nM. Turning to `COc1cc2c(cc1OCCF)CCN1C[C@@H](CC3CCC3)N(C)C[C@H]21` [Compound 8-4, (3R,11bS)-3-(cyclobutylmethyl)-9-(2-fluoroethoxy)-10-methoxy-2-methyl-1H,2H,3H,4H,6H,7H,11bH-piperazino[2,1-a]isoquinoline], the inhibition constant (Ki) in assay [2] fell in the range of 10 to 500 nM.

In assay [2], `COc1cc2c(cc1OC1CCCC1)CCN1C[C@@H](CC(C)C)N(C)C[C@H]21` [Compound 5-7, (3R,11bS)-9-(cyclopentyloxy)-10-methoxy-2-methyl-3-(2-methylpropyl)-1H,2H,3H,4H,6H,7H,11bH-piperazino[2,1-a]isoquinoline] displayed a Ki of under 10 nM. In the case of `COc1cc2c(cc1OCC1CC1(F)F)CCN1C[C@@H](CC(C)C)N(C)C[C@H]21` (stereo partly drawn) [Compound 5-18, (3R,11bS)-9-[(2,2-difluorocyclopropyl)methoxy]-10-methoxy-2-methyl-3-(2-methylpropyl)-1H,2H,3H,4H,6H,7H,11bH-piperazino[2,1-a]isoquinoline], in assay [2], the Ki was under 10 nM.

The compound `COc1cc2c(cc1OC(C)C)CCN1C[C@@H](CC(C)C)N(C)C[C@@H]21` [Compound 6-1, (3R,11bR)-10-methoxy-2-methyl-3-(2-methylpropyl)-9-(propan-2-yloxy)-1H,2H,3H,4H,6H,7H,11bH-piperazino[2,1-a]isoquinoline] displayed an inhibition constant (Ki) in assay [2] of over 500 nM. Same read-out and setting: next, `COc1cc2c(cc1OCCCCF)CCN1C[C@@H](CC(C)C)N(C)C[C@H]21` [Compound 5-14, (3R,11bS)-9-(4-fluorobutoxy)-10-methoxy-2-methyl-3-(2-methylpropyl)-1H,2H,3H,4H,6H,7H,11bH-piperazino[2,1-a]isoquinoline]: under 10 nM. For `COc1cc2c(cc1OC)[C@@H]1CN(C)[C@H](CC(C)C)CN1CC2` [Compound 3-2, (3R,11bR)-9,10-dimethoxy-2-methyl-3-(2-methylpropyl)-1H,2H,3H,4H,6H,7H,11bH-piperazino[2,1-a]isoquinoline], in assay [2], the inhibition constant Ki is over 500 nM. Turning to `COc1cc2c(cc1OCC1CC1)CCN1C[C@@H](CC3CCC3)N(C)C[C@H]21` [Compound 8-5, (3R,11bS)-3-(cyclobutylmethyl)-9-(cyclopropylmethoxy)-10-methoxy-2-methyl-1H,2H,3H,4H,6H,7H,11bH-piperazino[2,1-a]isoquinoline], the Ki in assay [2] was in the range of 10 to 500 nM. The same measure, in the same setting: next, `CCN1C[C@H]2c3cc(OC)c(OC)cc3CCN2C[C@H]1CC(C)C` [Compound 3-1, (3R,11bR)-2-ethyl-9,10-dimethoxy-3-(2-methylpropyl)-1H,2H,3H,4H,6H,7H,11bH-piperazino[2,1-a]isoquinoline]: over 500 nM. The same measure, in the same setting: next, `COc1cc2c(cc1OCC1CCC1)CCN1C[C@@H](CC3CCC3)N(C)C[C@H]21` [Compound 8-6, (3R,11bS)-9-(cyclobutylmethoxy)-3-(cyclobutylmethyl)-10-methoxy-2-methyl-1H,2H,3H,4H,6H,7H,11bH-piperazino[2,1-a]isoquinoline]: under 10 nM; `COc1cc2c(cc1OCCCC(F)(F)F)CCN1C[C@@H](CC3CCC3)N(C)C[C@H]21` [Compound 8-7, (3R,11bS)-3-(cyclobutylmethyl)-10-methoxy-2-methyl-9-(4,4,4-trifluorobutoxy)-1H,2H,3H,4H,6H,7H,11bH-piperazino[2,1-a]isoquinoline]: 10 to 500 nM; `COc1cc2c(cc1OCC1CC1(F)F)CCN1C[C@@H](CC3CCC3)N(C)C[C@H]21` (stereo partly drawn) [Compound 8-3, (3R,11bS)-3-(cyclobutylmethyl)-9-[(2,2-difluorocyclopropyl)methoxy]-10-methoxy-2-methyl-1H,2H,3H,4H,6H,7H,11bH-piperazino[2,1-a]isoquinoline]: 10 to 500 nM. Compound `CCOc1cc2c(cc1OC)[C@H]1CN(C)[C@H](CC(C)(C)C)CN1CC2` [Compound 11-12, (3R,11bS)-3-(2,2-dimethylpropyl)-9-ethoxy-10-methoxy-2-methyl-1H,2H,3H,4H,6H,7H,11bH-piperazino[2,1-a]isoquinoline] yielded a Ki in assay [2] of under 10 nM. In the case of `COc1cc2c(cc1OCC1CC1)CCN1C[C@@H](CC(C)C)N(C)C[C@H]21` [Compound 5-15, (3R,11bS)-9-(cyclopropylmethoxy)-10-methoxy-2-methyl-3-(2-methylpropyl)-1H,2H,3H,4H,6H,7H,11bH-piperazino[2,1-a]isoquinoline], in assay [2], the inhibition constant Ki was under 10 nM. On to `COc1cc2c(cc1OCC1CCC1)CCN1C[C@@H](CC(C)(C)C)N(C)C[C@H]21` [Compound 11-8, (3R,11bS)-9-(cyclobutylmethoxy)-3-(2,2-dimethylpropyl)-10-methoxy-2-methyl-1H,2H,3H,4H,6H,7H,11bH-piperazino[2,1-a]isoquinoline], for which, in assay [2], the Ki is under 10 nM. Same read-out and setting: next, `COc1cc2c(cc1OC1CC1)CCN1C[C@@H](CC(C)C)N(C)C[C@H]21` [Compound 5-5, (3R,11bS)-9-cyclopropoxy-10-methoxy-2-methyl-3-(2-methylpropyl)-1H,2H,3H,4H,6H,7H,11bH-piperazino[2,1-a]isoquinoline]: 10 to 500 nM.

The compound `COc1cc2c(cc1OCC1CCC1)CCN1C[C@@H](CC(C)C)N(C)C[C@H]21` [Compound 5-11, (3R,11bS)-9-(cyclobutylmethoxy)-10-methoxy-2-methyl-3-(2-methylpropyl)-1H,2H,3H,4H,6H,7H,11bH-piperazino[2,1-a]isoquinoline] returned a Ki in assay [2] of under 10 nM.

Usually IC50 stands for the midpoint of a concentration-inhibition curve. A word on the Ki: it is a measure of affinity in units of concentration, obtained from inhibition or displacement. A low value points to higher affinity.
